Laboratory results published in patent US5102894A, “Substituted piperidine compounds and their use” (Novo Nordisk A/S, priority 1989, dated 1992).
Where a name gives a salt, the structure may show the parent alone.

Columns and labels:
[1] = system: voltage operated calcium channels (VOC); experiment: inhibition of depolarization-induced 45Ca uptake into brain synaptosomes (crude P2 fraction); assay type: biochemical, male Wistar rat; conditions: rat cerebral cortex synaptosomes (P2), KCl-depolarized samples, 15 s uptake at 37° C., pH 7.4; triplicate; from dose response curves
Excerpt: The pharmacological properties of the compounds of the invention can be illustrated by determining their capability to inhibit calcium uptake into brain synaptosomes.
Depolarization of neuronal membranes leads to an opening of socalled `voltage operated calcium channels` (VOC) in the membranes which allows a massive influx of calcium from the extracellular space. A crude synaptosomal preparation (socalled P2 fraction) contains small vesicles surrounded by neuronal membrane and it is possible in such a preparation to study a depolarization-induced opening of VOC.
A male Wistar rat is decapitated and the cerebral cortex removed and homogenized in 10 ml of ice-cold 0.32 M sucrose using a glass homogenizer with a teflon pestle. All subsequent steps for isolation of synaptosomes are done at 0°-4° C. The homogenate is centrifuged at 1000×g for 10 min and the resulting supernatant is re-centrifuged at 18000×g for 20 min. This pellet (P2) is resuspended in 0.32 M sucrose (5 ml per g of original tissue) with a teflon pestle.
The tubes are pre- incubated for 30 min on ice and then for 6 min at 37° C. in a water bath.
The incubation is continued for 15 s.
The amount of radioactivity on the filter disc is determined by liquid scintillation spectrometry.
Test substances are dissolved in 10 ml of 48% ethanol at a concentration of 0.44 mg/ml. Dilutions are made in 48% ethanol to give final concentrations of 0.1, 0.3, 1, 3 and 10 μg/ml. Experiments are performed in triplicate. Controls for depolarized and nondepolarized samples are included in the assay and test substances are only tested in depolarized samples.
The IC50 value is estimated from dose response curves.

[2] = system: peripheral calcium uptake, e.g. in blood vessels and the heart; conditions: cited from earlier work

Structure (SMILES)	IC50 (concentration of test substance which inhibits 50% of stimulated uptake of 45Ca) [1]	activity against peripheral calcium uptake [2]
CCCCCN1CC[C@@H](c2cccs2)[C@H](COc2ccccc2C#N)C1 (relative stereo) [Compound 15, (+-) trans 3-(2-cyanophenoxymethyl)-1-pentyl-4-(2-thienyl)piperidine, HCl]	7.2 µg/mL	–
CCCCN1CC[C@@H](c2cccs2)[C@H](COc2cccc(OC)c2)C1 (relative stereo) [Compound 25, (+-) trans 1-butyl-4-(2-thienyl)-3-(3-methoxyphenoxymethyl)piperidine, HCl]	9.1 µg/mL	–
CCCCN1CC[C@@H](c2cccs2)[C@H](COc2ccccc2OC(C)C)C1 (relative stereo) [Compound 27, (+-) trans 1-butyl-3-(2-isopropoxyphenoxymethyl)-4-(2-thienyl)piperidine, oxalate]	13 µg/mL	–
CCCCCN1CC[C@@H](c2cccs2)[C@H](COc2cccc(CN)c2)C1 (relative stereo) [Compound 28, (+-) trans 3-(3-aminomethylphenoxymethyl)-1-pentyl-4-(2-thienyl)piperidine,HCl]	30 µg/mL	–
CCCCCN1CC[C@@H](c2ccsc2)[C@H](COc2ccc3c(c2)OCO3)C1 (relative stereo) [Compound 30, (+-) trans 3-(3,4-methylenedioxyphenoxymethyl)-1-pentyl-4-(3-thienyl)piperidine, HCl]	4.9 µg/mL	–
COc1ccc([C@@H]2Sc3ccccc3N(CCN(C)C)C(=O)[C@@H]2OC(C)=O)cc1 [Diltiazem]	–	have activity
COC(=O)C1=C(C)NC(C)=C(C(=O)OC)C1c1ccccc1[N+](=O)[O-] [Nifedipine]	–	have activity
COc1ccc(CCN(C)CCCC(C#N)(c2ccc(OC)c(OC)c2)C(C)C)cc1OC (stereo not drawn) [Verapamil]	–	have activity

Now from value to compound, other results behind:

IC50 (concentration of test substance which inhibits 50% of stimulated uptake of 45Ca) [1]	Structure (SMILES)	activity against peripheral calcium uptake [2]
18 µg/mL	CCCCN1CC[C@@H](c2ccc(C)o2)[C@H](COc2cccc(C(F)(F)F)c2)C1 (relative stereo) [Compound 12, HCl]	–
4.7 µg/mL	CCCCCN1CC[C@@H](c2ccsc2)[C@H](COc2cccc(C(F)(F)F)c2)C1 (relative stereo) [Compound 31, (+-) trans 1-pentyl-4-(3-thienyl)-3-(3-trifluoromethylphenoxymethyl)piperidine, oxalate]	–
3.6 µg/mL	CCCCCN1CC[C@@H](c2ccsc2)[C@H](COc2ccc(Cl)cc2)C1 (relative stereo) [Compound 37, (+-) trans 3-(4-chlorophenoxymethyl)-1-pentyl-4-(3-thienyl)piperidine, HCl]	–
2.7 µg/mL	CCCCCN1CC[C@@H](c2ccsc2)[C@H](COc2ccc(C#N)cc2)C1 (relative stereo) [Compound 39, (+-) trans 3-(4-cyanophenoxymethyl)-1-pentyl-4-(3-thienyl)piperidine, HCl]	–
10 µg/mL	CCCCCN1CC[C@@H](c2ccsc2)[C@H](COc2ccc(OC(F)(F)F)cc2)C1 (relative stereo) [Compound 43, (+-) trans 3-(4-trifluoromethoxyphenoxymethyl)-1-pentyl-4-(3-thienyl)piperidine, HCl]	–
2.8 µg/mL	FC(F)(F)c1cccc(OC[C@@H]2CNCC[C@H]2c2ccsc2)c1 (relative stereo) [Compound 44, (+-) trans 4-(thienyl)-3-(3-trifluoromethylphenoxymethyl)piperidine, HCl]	–
5.8 µg/mL	CCC(C)CN1CC[C@@H](c2ccsc2)[C@H](COc2cccc(C(F)(F)F)c2)C1 (relative stereo) [Compound 47, (+-) trans(2-methylbutyl)-4-(3-thienyl)-3-(3-trifluoromethylphenoxymethyl)piperidine, HCl]	–
